Experimental data as given in US9211310B2, “Use of a Chinese medicine composition in preparing medicaments for treating secondary prevention of myocardial infarction” (TASLY PHARMACEUTICAL GROUP CO., LTD, priority 2010, dated 2015).

System: patients after acute myocardial infarction
Experiment: Life quality, Seattle Angina Questionnaire (SAQ), same clinical trial
Assay type: in vivo, human
Details: PP; 12 months after treatment
Excerpt: 3508 patients who were in accordance with the diagnostic standards of AMI for 28 days to 2 years and differentiated as Qi deficiency and blood stagnation syndrome by TCM were studied. 0.5 g Chinese medicine composition prepared by the method of EXAMPLE 1 (Coded as QSYQ) was administrated half an hour after meal, 3 times per day.
There were 19 questions in the Seattle angina questionnaire (SAQ), including 5 parts: physical limitation (PL), anginal stability (AS), anginal frequency (AF), treatment satisfaction (TS) and disease perception (DP). After being given necessary explanation by doctors, the questions were answered independently by patients.
They included the overall survival time, angina pectoris score, TCM symptom score and life quality score, where angina pectoris score, TCM symptom score and life quality score were evaluated at randomization, in 1st, 3rd, 6th, 9th, 12th month after treatment and 18th month after follow-up.
All evaluation results of SAQ were described during the period of observation, and Wilcoxon rank sum test was used for inter-group comparison.
The evaluation results in the SAQ were depicted in different observations, and inter-group comparison was tested by Wilcoxon Rank-sum test.

SMILES: CC(=O)Oc1ccccc1C(=O)O [Control group, aspirine]
- 9th question: Severe, patients (%): (0.21%)
- 9th question: Uneffective, patients (%): (24.25%)
- 10th question: Dissatisfied, patients (%): (18.68%)
- 10th question: Highly satisfied, patients (%): (8.26%)
- 10th question: Mostly dissatisfied, patients (%): (18.61%)
- 10th question: Mostly satisfied, patients (%): (31.84%)
- 10th question: Partly dissatisfied, patients (%): (22.60%)
- 11th question: Continuously worried, patients (%): (1.96%)
- 11th question: No worried, patients (%): (7.42%)
- 11th question: Occasionally worried, patients (%): (40.59%)
- 11th question: Often worried, patients (%): (7.98%)
- 11th question: Seldom worried, patients (%): (42.06%)
- SAQ 4th question, 1-2 times per week: % of patients: (10.29%)
- SAQ 4th question, 1-2 times per week: number of patients: 147
- SAQ 4th question, 1-3 times per week: % of patients: (3.36%)
- SAQ 4th question, 1-3 times per week: number of patients: 48
- SAQ 4th question, <1 time per week: % of patients: (16.38%)
- SAQ 4th question, <1 time per week: number of patients: 234
- SAQ 4th question, Not used: % of patients: (67.74%)
- SAQ 4th question, Not used: number of patients: 968
- SAQ 4th question, ≧3 times per week: % of patients: (2.24%)
- SAQ 4th question, ≧3 times per week: number of patients: 32
- SAQ 4th question, ≧4 times per day: % of patients: (0.00%)
- SAQ 4th question, ≧4 times per day: number of patients: 0
- SAQ 5th question, 1-2 times per week: % of patients: (34.01%)
- SAQ 5th question, 1-2 times per week: number of patients: 486
- SAQ 5th question, 1-3 times per day: % of patients: (4.13%)
- SAQ 5th question, 1-3 times per day: number of patients: 59
- SAQ 5th question, <1 time per week: % of patients: (30.58%)
- SAQ 5th question, <1 time per week: number of patients: 437
- SAQ 5th question, No onset: % of patients: (5.67%)
- SAQ 5th question, No onset: number of patients: 81
- SAQ 5th question, ≧3 times per week: % of patients: (25.33%)
- SAQ 5th question, ≧3 times per week: number of patients: 362
- SAQ 5th question, ≧4 times per day: % of patients: (0.28%)
- SAQ 5th question, ≧4 times per day: number of patients: 4
- SAQ 6th question, Dissatisfied: % of patients: (0.07%)
- SAQ 6th question, Dissatisfied: number of patients: 1
- SAQ 6th question, Highly satisfied: % of patients: (27.78%)
- SAQ 6th question, Highly satisfied: number of patients: 397
- SAQ 6th question, Mostly dissatisfied: % of patients: (0.84%)
- SAQ 6th question, Mostly dissatisfied: number of patients: 12
- SAQ 6th question, Mostly satisfied: % of patients: (61.72%)
- SAQ 6th question, Mostly satisfied: number of patients: 882
- SAQ 6th question, Partly satisfied: % of patients: (9.59%)
- SAQ 6th question, Partly satisfied: number of patients: 137
- SAQ 7th question, Dissatisfied: % of patients: (0.07%)
- SAQ 7th question, Dissatisfied: number of patients: 1
- SAQ 7th question, Highly satisfied: % of patients: (31.25%)
- SAQ 7th question, Highly satisfied: number of patients: 446
- SAQ 7th question, Mostly dissatisfied: % of patients: (0.28%)
- SAQ 7th question, Mostly dissatisfied: number of patients: 4
- SAQ 7th question, Mostly satisfied: % of patients: (60.34%)
- SAQ 7th question, Mostly satisfied: number of patients: 861
- SAQ 7th question, Partly satisfied: % of patients: (8.06%)
- SAQ 7th question, Partly satisfied: number of patients: 115
- SAQ Question 1-1 Mildly limited, number of patients: 7
- SAQ Question 1-1 Mildly limited, percent of patients: (0.49%)
- SAQ Question 1-1 Moderately limited, number of patients: 1
- SAQ Question 1-1 Moderately limited, percent of patients: (0.07%)
- SAQ Question 1-1 Not limited, number of patients: 1371
- SAQ Question 1-1 Not limited, percent of patients: (96.28%)
- SAQ Question 1-1 Other reasons, number of patients: 4
- SAQ Question 1-1 Other reasons, percent of patients: (0.28%)
- SAQ Question 1-1 Severely limited, number of patients: 0
- SAQ Question 1-1 Severely limited, percent of patients: (0.00%)
- SAQ Question 1-1 Slightly limited, number of patients: 41
- SAQ Question 1-1 Slightly limited, percent of patients: (2.88%)
- SAQ Question 1-2 Mildly limited, number of patients: 8
- SAQ Question 1-2 Mildly limited, percent of patients: (0.56%)
- SAQ Question 1-2 Moderately limited, number of patients: 1
- SAQ Question 1-2 Moderately limited, percent of patients: (0.07%)
- SAQ Question 1-2 Not limited, number of patients: 1365
- SAQ Question 1-2 Not limited, percent of patients: (95.79%)
- SAQ Question 1-2 Other reasons, number of patients: 6
- SAQ Question 1-2 Other reasons, percent of patients: (0.42%)
- SAQ Question 1-2 Severely limited, number of patients: 0
